Patent publication US6903121B1, “TREATMENT OF TUMORS WITH ACETYLENES DISUBSTITUTED WITH A PHENYL OR HETEROAROMATIC GROUP AND A SUBSTITUTED CHROMANYL, THIOCHROMANYL OR TETRAHYDROQUINOLINYL GROUP IN COMBINATION WITH OTHER ANTI-TUMOR AGENTS” (Allergan, Inc., priority 2000, dated 2005)
“Also recorded” adds a separate entry of the source.

How the values were obtained:
carcinoma cell lines = conditions: in some of the cell lines; Fanjul et al. 1996; cited from earlier work
[1] = system: MCF-7 human breast cancer lines; conditions: Toma et al. 1997; cited from earlier work
[2] = system: MDA-MB 231 human carcinoma cell line; conditions: Kurbacher et al. 1996; cited from earlier work
[3] = system: MCF-7 human carcinoma cell line; conditions: Kurbacher et al. 1996; cited from earlier work
T-47D cells = experiment: Cell proliferation assay (BrdU incorporation) in T-47D breast cancer cells; assay type: cell-based, human
Protocol: (§1) The SK-BR-3, T47D and HL-60 cell cultures in which the assay procedures were performed are also well known and are available from sources well known in the art. Specifically, as is known, T47D is an estrogen receptor positive (ER^+) human breast cancer cell line, and SK-BR-3 is an estrogen receptor negative (ER^−) human breast cancer cell line. HL-60 is a well known human myeloid leukemia cell line. The assay procedure for the breast cancer lines itself is well known in the art and involves determining incorporation of 5-bromo-2′-deoxyuridine (BrdU) into the cells. As is known, incorporation of less BrdU represents less cell proliferation (inhibition of cell proliferation), and this assay is accepted in the art as a measure of anti-proliferative or anti-tumor activity of the assayed agent or agents. The assay procedure for the HL-60 cell line is also well-known in the art. It involves measuring the concentration of formazan dye which is cleaved from 3-[4,5-dimethylthiazole-2-yl]-2,5-diphenyltetrazolium bromide by viable HL-60 cells.
(§2) The estrogen receptor-positive (ER^+) cell line T-47D and the ER^− cell line SK-BR-3 were cultured in Dulbecco's modification of Eagle's medium (DMEM Gibco BRL, Gaithersburg, Md.) supplemented with 10% fetal bovine serum (HyClone, Logan, Utah), 2 mM L-glutamine and 1% antibiotics-antimycotics (Gibco BRL). Cell lines were obtained from the American Type Culture Collection (ATCC, Rockville, Md., HTB-133 and HTB-30 for T-47D and SK-BR-3, respectively). Cells were cultured at 37 °C in a humidified atmosphere containing 5% CO2.
(§3) Proliferation of cancer cell lines was determined using a commercial cell proliferation kit (Roche Diagnostics), essentially following the instructions of the manufacturer. Cells were seeded into 96-well tissue culture plates (Corning Incorporated, Corning, N.Y.) at a concentration of 3000 cells/well. After 24 hours, cells were treated continuously with tazarotene (Formula 3) and/or interferons (IFNs) or solvent alone. The appropriate concentrations of tazarotene (Formula 3) used in this study were between 10^−11 M and 10^−6M; IFN concentrations were between 10 and 1000 Unit/ml. Culture media were changed every 72 hours. After 7 days, 10 μl of 5-bromo-2′-deoxyuridine (BrdU) was added to each well. Incubation with BrdU was stopped 24 hours later by adding 100 μl of anti-BrdU antibody to each well. The amount of BrdU incorporated into the DNA of proliferating cells was assessed by measuring absorbance at […]. Each experiment was performed in triplicate in three independent experiments.
(§4) The growth inhibition observed for a combined treatment with tazarotene (Formula 3) and IFNs was analyzed for both synergistic and additive effects. The criteria for these effects have been discussed by three different groups (Aapro et al., Cancer Chemother. Pharmacol., 10: 161-166, 1983, Marth et al. J. Natl Cancer Inst., 77:1197-1202, 1986, Kurbacher et al., Cancer Letters, 103: 183-189, 1996). The mathematical multiplication of the two surviving fractions after the treatment of either with tazarotene (Formula 3) or with the respective interferon is the calculated value for simple additivity of both agents in combination. This calculated value is compared to the actual value observed to determine the nature of the combination effect. […] Synergism or inhibition was determined for each experiment individually, with the P value being 0.05 in comparison to the simple additivity hypothesis.

SK-BR-3 cells = experiment: Cell proliferation assay (BrdU incorporation) in SK-BR-3 breast cancer cells; assay type: cell-based, human
Protocol: as §1, §2, §3, §4

HL-60 cells = experiment: Cell proliferation assay (MTT) in HL-60 leukemia cell line; assay type: cell-based, human
Protocol: as §1
The human myeloid leukemia cell line HL-60 was cultured in Iscove's modified Dulbecco's medium (IMDM Gibco BRL, Gaithersburg, Md.) supplemented with 10% fetal bovine serum (HyClone, Logan, Utah), 2 mM L-glutamine and 1% antibiotics-antimycotics (Gibco BRL). HL-60 cells were obtained from the American Type Culture Collection (ATCC, Rockville, Md., CCL-240). Cells were cultured at 37° C. in a humidified atmosphere containing 5% CO2.
Proliferation of the HL-60 leukemia cell line was determined by a cell viability and non-radioactive commercial cell proliferation kit (MTT assay; Roche Diagnostics, Indianapolis, Ind.), essentially by following the instructions of the manufacturer. Cells were seeded into 96-well tissue culture plates (Corning Incorporated, Corning, N.Y.) at a concentration of 1000 cells/well. After 24 hours, the cells were treated continuously with tazarotene (Formula 3) and/or IFNs or solvent alone. […] The quantification of viable cells, capable of cleaving MTT to form a formazan dye, was assessed by measuring absorbance at 590 nm. […]
as §4, with “The criteria for these effects have been discussed by three different groups (Aapro et al., Cancer Chemother. Pharmacol., 10: 161-166, 1983, Marth et al. J. Natl Cancer Inst., 77:1197-1202, 1986, Kurbacher et al., Cancer Letters, 103: 183-189, 1996).” left out

For COC(=O)c1ccc(/C(C)=C/c2ccc3c(c2)C(C)(C)CCC3(C)C)cc1 [SRI 11220], which “anti-proliferative activity in combination with interferon” value (carcinoma cell lines) is on record?
Its value is “synergistic”.

With CC1=C(/C=C/C(C)=C/C=C/C(C)=C/C(=O)O)C(C)(C)CCC1 [all trans retinoic acid] as the compound, how does the “combination effect with other chemotherapeutic agents such as tamoxifen (TAM)” value [1] read?
The value was “synergistic effect”.

And the “combination effect with α interferon (α IFN)” value [1]?
The value was “synergistic effects”.

Which results are given for O=C1O[C@H]([C@@H](O)CO)C(O)=C1O [vitamin C]?
combination effect with certain chemotherapeutic anti-tumor agents [2]: synergistic action; combination effect with certain chemotherapeutic anti-tumor agents [3]: synergistic action

What does the source list for CCOC(=O)c1ccc(C#Cc2ccc3c(c2)C(C)(C)CCS3)nc1 [tazarotene, ethyl 6-[2-(4,4-dimethylthiochroman-6-yl)ethynyl]nicotinate]?
anti-proliferative effect of combination with IFNα (combination effect) (T-47D cells; IFNα constant 100 U/ml, tazarotene varied, FIG. 2): synergism, although not as striking as in the assays with SK-BR-3 cells; anti-proliferative effect of combination with IFNβ (combination effect) (T-47D cells; IFNβ constant 100 U/ml, tazarotene varied, FIG. 4): synergism; also recorded: synergism, although not as striking as in the assays with SK-BR-3 cells; anti-proliferative effect of combination with IFNγ (combination effect) (T-47D cells; IFNγ constant 100 U/ml, tazarotene varied, FIG. 6): synergism, although not as striking as in the assays with SK-BR-3 cells; anti-proliferative effect of combination with IFNα (combination effect) (T-47D cells; tazarotene constant 10 nM, IFNα varied 0 to 1000 U/ml, FIG. 8): weak synergism; anti-proliferative effect of combination with IFNβ (combination effect) (T-47D cells; tazarotene constant 10 nM, IFNβ varied 0 to 1000 U/ml, FIG. 10): significant synergism; anti-proliferative effect of combination with IFNα (combination effect vs theoretically additive curve) (SK-BR-3 cells; IFNα constant 100 U/ml, tazarotene varied, FIG. 1): synergism; also recorded: synergistic effect; anti-proliferative effect of combination with IFNβ (combination effect) (SK-BR-3 cells; IFNβ constant 10 U/ml, tazarotene varied, FIG. 3): synergism; also recorded: significant synergistic effect; anti-proliferative effect of combination with IFNγ (combination effect) (SK-BR-3 cells; IFNγ constant 100 U/ml, tazarotene varied, FIG. 5): synergism; also recorded: significant synergistic effect; anti-proliferative effect of combination with IFNα (combination effect) (SK-BR-3 cells; tazarotene constant 10 nM, IFNα varied 0 to 1000 U/ml, FIG. 7): striking synergism; anti-proliferative effect of combination with IFNβ (combination effect) (SK-BR-3 cells; tazarotene constant 10 nM, IFNβ varied 0 to 1000 U/ml, FIG. 9): striking synergism; anti-proliferative effect of combination with IFNγ (combination effect) (SK-BR-3 cells; tazarotene constant 10 nM, IFNγ varied 0 to 1000 U/ml, FIG. 11): striking synergism; anti-proliferative effect of combination with IFNα (combination effect) (HL-60 cells; IFNα constant 100 U/ml, tazarotene varied, FIG. 13): significant synergism; anti-proliferative effect of combination with IFNβ (combination effect) (HL-60 cells; IFNβ constant 100 U/ml, tazarotene varied, FIG. 14): significant synergism; anti-proliferative effect of combination with IFNα (combination effect) (HL-60 cells; tazarotene constant 50 nM, IFNα varied 0 to 1000 U/ml, FIG. 15): significant synergism; anti-proliferative effect of combination with IFNβ (combination effect) (HL-60 cells; tazarotene constant 50 nM, IFNβ varied 0 to 1000 U/ml, FIG. 16): significant synergism
